Among the data in patent publication US6657060B2, “Pyrimidine derivatives” (Hoffman-La Roche Inc., priority 2000, dated 2003) are IC50 values, retold here.

The IC50 is the midpoint of a concentration-inhibition curve.

For the test, the target named is T1, recombinant mouse NPY5-receptor (mNPY5) (Mus musculus, UniProt O70342).
T1 construct: The full-length cDNA encoding the mouse NPY5 (mNPY5) receptor was amplified from mouse brain cDNA; expressed in transfected cells; membranes
T1 sequence (O70342 1-466): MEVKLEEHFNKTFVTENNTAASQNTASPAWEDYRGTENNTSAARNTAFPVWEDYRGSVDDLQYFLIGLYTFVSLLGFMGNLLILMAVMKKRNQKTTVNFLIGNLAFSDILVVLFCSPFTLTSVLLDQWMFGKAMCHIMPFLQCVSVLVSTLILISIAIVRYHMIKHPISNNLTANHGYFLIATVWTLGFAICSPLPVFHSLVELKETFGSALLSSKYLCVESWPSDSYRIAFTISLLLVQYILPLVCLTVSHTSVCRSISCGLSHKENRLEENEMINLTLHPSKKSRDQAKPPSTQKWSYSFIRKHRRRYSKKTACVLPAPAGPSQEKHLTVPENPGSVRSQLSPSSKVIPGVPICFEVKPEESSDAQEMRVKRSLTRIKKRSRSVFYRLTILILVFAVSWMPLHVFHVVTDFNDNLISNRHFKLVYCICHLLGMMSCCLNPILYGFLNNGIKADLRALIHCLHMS
The test can be described thus: Radioligand competition binding. The settings on record: membranes of HEK293 cells expressing mNPY5; 100 pM [125I]labelled peptide YY (PYY); 1 h at 22° C. The source says: The full-length cDNA encoding the mouse NPY5 (mNPY5) receptor was amplified from mouse brain cDNA using specific primers, designed based on the published sequence, and Pfu DNA-Polymerase (Stratagene). The amplification product was subcloned into the mammalian expression vector pcDNA3 using Eco RI and XhoI restriction sites. Positive clones were sequenced and one clone, encoding the published sequence was selected for generation of stable cell clones.
Human embryonic kidney 293 (HEK293) cells were transfected with 10 μg mNPY5 DNA using the lipofectamine reagent (Gibco BRL) according to the manufacturer's instruction. Two days after transfection, geneticin selection (1 mg/ml) was initiated and several stable clones were isolated. One clone was further used for pharmacological characterization.
Human embryonic kidney 293 cells (HEK293), expressing recombinant mouse NPY5-receptor (mNPY5) were broken by three freeze/thawing cycles in hypotonic Tris buffer (5 mM, pH 7.4, 1 mM MgCl2), homogenized and centrifuged at 72,000×g for 15 min. The pellet was washed twice with 75 mM Tris buffer, pH 7.4, containing 25 mM MgCl2 and 250 mM sucrose, 0.1 mM phenylmethylsulfonylfluoride and 0.1 mM 1,10-pheneanthrolin, resuspended in the same buffer and stored in aliquots at −80° C. Protein was determined according to the method of Lowry using bovine serum albumine (BSA) as a standard. […]
For orientation: In a radioligand displacement assay an active substance lowers the binding of a labelled ligand.

Take `Cc1cc(N2CCCC2)nc(/C=C/c2cccc(C#N)c2)n1` [Compound 20, (E)-3-[2-(4-methyl-6-pyrrolidin-1-yl-pyrimidin-2-yl)-vinyl]-benzonitrile]: the concentration for half-maximal inhibition (IC50) came out at 18 nM.

Take `Cc1cc(N2CCCC2)nc(/C=C/c2ccc(F)cc2F)n1` [Compound 43, (E)-2-[2-(2,4-difluoro-phenyl)-vinyl]-4-methyl-6-pyrrolidin-1-yl-pyrimidine]: the IC50 stood at 30 nM.
